Results as given in patent EP0976754B1, “REMEDIES/PREVENTIVES FOR RESPIRATORY DISEASES” (POLA CHEMICAL INDUSTRIES, INC., priority 1997, dated 1998).

Columns and labels:
[1] = system: airway-constriction reaction; assay: Inhibitory effect on airway-constriction reaction (in vivo), modified Konzet-Lössler method, acetylcholine-elicited; conditions: Cavia porcellus, iv; test compound 100 mg/2 ml/kg in 1% CMC through esophageal cannula; acetylcholine 20 µg/kg i.v. at 15, 30, 60 and 120 minutes; anesthetized guinea pigs; read-out: Inhibitory rate (%) Acetylcholine
Experimental: (§1) A group of 6 male Hartley albino guinea pigs (250 to 350 g) was anesthetized with pentobarbital, and the tracheae, esophagi, carotid arteries and jugular veins thereof were cannulated. The experiment was performed by connecting the tracheotomic cannula to a respirator incorporated into a circuit of a bronchospasm transducer (modified Konzet-Lössler method), arresting the spontaneous respiration of each guinea pig with choline chloride succinate (1 mg/kg i.v.) and then practicing artificial ventilation, and an airway-constriction reaction was determined by using an overflow rate of ventilation as an index. Acetylcholine (20 µg/kg) or histamine (20 µg/kg) was intravenously administered upon elapsed time of 15, 30, 60 and 120 minutes after a test compound (100 mg/2 ml/kg) suspended in 1% CMC was administered through the esophageal cannula, thereby observing the airway-constriction reaction elicited. For the sake of comparison, theophylline (100 mg/2 ml/kg) commonly and widely used in the treatment for asthma was used. The inhibitory effect on the airway-constriction reaction was expressed by a value calculated as an inhibitory rate (%). It turns out that all the compounds according to the present invention have an excellent inhibitory effect on airway constriction.

[2] = system: airway-constriction reaction; assay: Inhibitory effect on airway-constriction reaction (in vivo), modified Konzet-Lössler method, histamine-elicited; conditions: Cavia porcellus, iv; test compound 100 mg/2 ml/kg in 1% CMC through esophageal cannula; histamine 20 µg/kg i.v. at 15, 30, 60 and 120 minutes; anesthetized guinea pigs; read-out: Inhibitory rate (%) Histamine
Experimental: as §1

trachea [3] = assay: Tracheodilative effect (in vitro), Magnus method, trachea strips contracted with histamine; conditions: Cavia porcellus; relaxation of guinea pig trachea strips contracted with 3 x 10^-6 M histamine; maximum relaxation by 10^-4 M isoproterenol = 100%; read-out: pIC50 value Histamine (converted)
Experimental: (§2) With respect to Compound 2, Compound 5, Compound 6, Compound 7 and Compound 16, the tracheodilative effect useful in treatment and/or prevention of respiratory diseases such as asthma was investigated by the Magnus method. A male Hartley albino guinea pig (250 to 300 g) was blow on the head and exsanguinated to death to enucleate its trachea. Strip specimens were prepared from the trachea. Each of the specimens was suspended in a Magnus tube filled with a Krebs-Henseleit solution kept at 37°C with supply of a mixed gas (95% O2, 5% CO2). A static tension of 1.0 g was loaded to record an isometric tension. Each of test compounds was cumulatively administered to the specimens separately contracted with 1 x 10^-6 M carbachol and 3 x 10^-6 M histamine to investigate its relaxing effect. After the cumulative administration, 10^-4 M isoproterenol was administered to identify the maximum relaxing effect on the trachea specimen. The maximum relaxation was regarded as 100%, and a negative logarithmic value of the concentration of the test compound, at which the specimen was relaxed by 50%, was calculated out, thereby regarding it as a pIC50 value. […]

trachea [4] = assay: Tracheodilative effect (in vitro), Magnus method, trachea strips contracted with carbachol; conditions: Cavia porcellus; relaxation of guinea pig trachea strips contracted with 1 x 10^-6 M carbachol; maximum relaxation by 10^-4 M isoproterenol = 100%; read-out: pIC50 value Carbachol (converted)
Experimental: as §2

trachea [5] = assay: Tracheodilative effect (in vitro), Magnus method, enucleated trachea contracted with LTD4; conditions: Cavia porcellus; relaxation of enucleated guinea pig trachea contracted with LTD4 3 x 10^-8 M; read-out: pIC50 value LTD4 (converted)
Experimental: as §2
The pIC50 values of the compounds according to the present invention on contraction by LTD4 (concentration: 3 x 10^-8 M) were determined by using the enucleated trachea in accordance with the Magnus method in the same manner as in Test Example 1. It turns out that the compounds according to the present invention are effective on the contraction by this agent.

IC50 (trachea [3])	IC50 (trachea [4])	IC50 (trachea [5])	Compound	inhibition in vivo at 100 mg/kg [1]	inhibition in vivo at 100 mg/kg [2]
–	–	–	CC(C)(C)N1CCc2cnc3c(C#N)cnn3c21 [Compound 14, 8-tert-butyl-3-cyano-6,7-dihydro-8H-pyrrolo[3,2-e]pyrazolo[1,5-a]pyrimidine]	40.4%	8.7%
–	–	–	N#Cc1cnn2c3c(cnc12)CCN3C1CCCC1 [Compound 1, 3-cyano-8-cyclopentyl-6,7-dihydro-8H-pyrrolo[3,2-e]pyrazolo[1,5-a]pyrimidine]	33.4%	22.2%
12.6 µM	18.6 µM	4.07 µM	N#Cc1cnn2c3c(c(N)nc12)CCN3C1CCCC1 [Compound 5, 5-amino-3-cyano-8-cyclopentyl-6,7-dihydro-8H-pyrrolo[3,2-e]pyrazolo[1,5-a]pyrimidine]	32.1%	52.9%
16.2 µM	22.4 µM	11.2 µM	N#Cc1cnn2c3c(c(N)nc12)CCN3C1CCCCC1 [Compound 6, 5-amino-3-cyano-8-cyclohexyl-6,7-dihydro-8H-pyrrolo[3,2-e]pyrazolo[1,5-a]pyrimidine]	–	–
16.2 µM	23.4 µM	–	CC(C)(C)N1CCc2c(N)nc3c(C#N)cnn3c21 [Compound 16, 5-amino-8-tert-butyl-3-cyano-6,7-dihydro-8H-pyrrolo[3,2-e]pyrazolo[1,5-a]pyrimidine]	–	–
–	–	–	N#Cc1cnn2c3c(c(Cl)nc12)CCN3C1CCCC1 [Compound 3, 5-chloro-3-cyano-8-cyclopentyl-6,7-dihydro-8H-pyrrolo[3,2-e]pyrazolo[1,5-a]pyrimidine]	22.8%	7.7%
6.31 µM	19.1 µM	–	CCC(C)N1CCc2cnc3c(C#N)cnn3c21 (stereo not shown) [Compound 2, 8-sec-butyl-3-cyano-6,7-dihydro-8H-pyrrolo[3,2-e]pyrazolo[1,5-a]pyrimidine]	50%	52.2%
15.5 µM	18.2 µM	3.72 µM	CCC(C)N1CCc2c(N)nc3c(C#N)cnn3c21 (stereo not shown) [Compound 7, 5-amino-8-sec-butyl-3-cyano-6,7-dihydro-8H-pyrrolo[3,2-e]pyrazolo[1,5-a]pyrimidine]	36.5%	49.8%
–	–	–	CCC(C)N1CCc2c(Cl)nc3c(C#N)cnn3c21 (stereo not shown) [Compound 4, 8-sec-butyl-5-chloro-3-cyano-6,7-dihydro-8H-pyrrolo[3,2-e]pyrazolo[1,5-a]pyrimidine]	33.2%	24.7%
–	–	–	CC(C)(C)N1CCc2c(Cl)nc3c(C#N)cnn3c21 [Compound 15, 8-tert-butyl-5-chloro-3-cyano-6,7-dihydro-8H-pyrrolo[3,2-e]pyrazolo[1,5-a]pyrimidine]	36.5%	25.8%
977 µM	2950 µM	112 µM	Cn1c(=O)c2[nH]cnc2n(C)c1=O [Theophylline, theophylline, reference compound]	39.5%	37.7%
